Calls of active or inactive are those of the source. The rule behind the calls is not given here.
The compounds below were run on Cystic fibrosis transmembrane conductance regulator (Homo sapiens), P13569 [N1303K] (assay: Corrector activity at HRP tagged CFTR N1303K mutant (unknown origin) expressed in FRT cells assessed as stabilization of CFTR mutant in plasma membrane by measuring enhanced HRP signal at 5 uM incubated for 24 hrs by ELISA). Settings: filed as activator.
Cystic fibrosis transmembrane conductance regulator (Homo sapiens), P13569 [N1303K], sequence (P13569 whole entry N1303K): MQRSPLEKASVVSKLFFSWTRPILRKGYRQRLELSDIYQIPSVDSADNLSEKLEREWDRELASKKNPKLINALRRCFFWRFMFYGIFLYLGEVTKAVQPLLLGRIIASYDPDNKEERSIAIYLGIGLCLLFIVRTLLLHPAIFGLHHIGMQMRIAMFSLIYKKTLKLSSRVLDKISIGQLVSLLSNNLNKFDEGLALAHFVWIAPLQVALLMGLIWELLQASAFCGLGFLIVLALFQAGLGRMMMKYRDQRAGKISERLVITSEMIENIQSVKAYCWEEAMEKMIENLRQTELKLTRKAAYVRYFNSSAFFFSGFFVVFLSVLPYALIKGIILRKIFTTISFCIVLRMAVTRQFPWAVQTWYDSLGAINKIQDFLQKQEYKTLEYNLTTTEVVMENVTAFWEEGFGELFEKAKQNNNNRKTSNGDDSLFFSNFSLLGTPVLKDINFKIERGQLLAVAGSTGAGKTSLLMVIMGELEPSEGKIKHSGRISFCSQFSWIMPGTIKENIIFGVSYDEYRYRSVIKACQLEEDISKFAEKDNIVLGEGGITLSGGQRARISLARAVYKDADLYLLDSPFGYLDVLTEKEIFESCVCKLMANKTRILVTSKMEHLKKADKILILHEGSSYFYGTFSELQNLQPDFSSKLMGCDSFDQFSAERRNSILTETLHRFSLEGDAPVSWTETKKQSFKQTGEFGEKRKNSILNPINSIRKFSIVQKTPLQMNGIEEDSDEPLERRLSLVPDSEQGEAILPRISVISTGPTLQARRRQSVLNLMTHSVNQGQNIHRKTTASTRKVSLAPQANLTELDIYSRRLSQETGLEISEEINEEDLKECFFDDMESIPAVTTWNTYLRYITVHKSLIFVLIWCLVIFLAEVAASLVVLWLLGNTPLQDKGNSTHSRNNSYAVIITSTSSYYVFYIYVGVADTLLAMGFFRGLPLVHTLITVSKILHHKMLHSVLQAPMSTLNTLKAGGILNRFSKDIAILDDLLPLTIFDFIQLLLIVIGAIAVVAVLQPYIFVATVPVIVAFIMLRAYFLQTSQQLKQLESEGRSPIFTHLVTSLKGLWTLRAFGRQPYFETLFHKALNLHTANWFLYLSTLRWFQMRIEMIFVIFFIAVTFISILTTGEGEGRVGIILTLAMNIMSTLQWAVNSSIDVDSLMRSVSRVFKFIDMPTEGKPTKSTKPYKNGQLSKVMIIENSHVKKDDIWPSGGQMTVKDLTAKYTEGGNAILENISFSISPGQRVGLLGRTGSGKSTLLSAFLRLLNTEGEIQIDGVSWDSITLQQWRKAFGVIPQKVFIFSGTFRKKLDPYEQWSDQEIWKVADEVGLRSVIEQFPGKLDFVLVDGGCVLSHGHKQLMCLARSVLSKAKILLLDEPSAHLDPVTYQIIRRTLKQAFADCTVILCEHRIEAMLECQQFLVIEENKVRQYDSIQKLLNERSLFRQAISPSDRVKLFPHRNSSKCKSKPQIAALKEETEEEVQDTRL

Activity	Structure (SMILES)
Active	CCc1nnc2n1N=C(c1ccc(OC)c(OC)c1)CS2

These compounds were tested against Cystic fibrosis transmembrane conductance regulator (Homo sapiens, UniProt P13569, G551D) (assay: Potentiation of CFTR G551D mutant (unknown origin) expressed in FRT cells assessed as increase in chloride current in presence of VX-770 by voltage clamp electrophysiology recording). Settings: not given.
Format: cell-based

Cystic fibrosis transmembrane conductance regulator, sequence (P13569 whole entry G551D): as the sequence (P13569 whole entry N1303K) above, with G551D, K1303N counted along it

EC50	Structure (SMILES)
~940 nM	CCc1nnc2n1N=C(c1ccc(OC)c(OC)c1)CS2

These compounds were tested on Cystic fibrosis transmembrane conductance regulator (Homo sapiens), P13569 [G551D] (assay: Potentiation of CFTR G551D mutant (unknown origin) expressed in FRT cells assessed as increase in chloride current at 10 uM in presence of VX-770 by voltage clamp electrophysiology recording relative to VX-770 alone). Settings: filed as activator.
Format: cell-based

Cystic fibrosis transmembrane conductance regulator (Homo sapiens), P13569 [G551D], sequence (P13569 whole entry G551D): as the sequence (P13569 whole entry N1303K) above, with G551D, K1303N counted along it

Structure (SMILES)	Activity
CCC1=Nn2c(nnc2-c2ccc(Cl)cc2)SC1	149%
CCC1=Nn2c(nnc2-c2cccc(Cl)c2Cl)SC1	129%
FC(F)(F)C1=Nn2c(nnc2-c2ccc(Cl)cc2Cl)SC1	159%
CCC1=Nn2c(nnc2-c2ccc(Cl)c(Cl)c2)SC1	187%
FC(F)(F)C1=Nn2c(nnc2-c2cc(Cl)ccc2Br)SC1	171%
CCC1=Nn2c(nnc2-c2cc(Cl)ccc2Br)SC1	118%
CCC1=Nn2c(nnc2-c2ccc(Cl)cc2Cl)SC1	257%
CCc1nnc2n1N=C(c1ccc(OC)c(OC)c1)CS2	204%
CCC1=Nn2c(nnc2-c2cccc(Cl)c2)SC1	162%
CCC1=Nn2c(nnc2-c2cc(OC)c(OC)c(OC)c2)SC1	119%
CCc1nnc2n1N=C(c1ccc(Cl)c(Cl)c1)CS2	103%
CCC1=Nn2c(nnc2-c2ccc(OC)c(OC)c2)SC1	107%

Results, then the compound that gave them:

Activity	Structure (SMILES)
267%	CC(C)C1=Nn2c(nnc2-c2cc(Cl)ccc2Br)SC1
155%	CC1=Nn2c(nnc2-c2cc(Cl)ccc2Br)SC1
379%	CC(C)(C)C1=Nn2c(nnc2-c2ccc(Cl)cc2Cl)SC1
232%	COc1ccc(Br)c(-c2nnc3n2N=C(C(C)C)CS3)c1
137%	CC1=Nn2c(nnc2-c2ccc(Cl)cc2Cl)SC1
142%	COc1ccc(C2=Nn3c(nnc3-c3ccc(Cl)cc3Cl)SC2)cc1
196%	CC(C)C1=Nn2c(nnc2-c2cc(Cl)ccc2Cl)SC1
237%	COc1ccc(F)c(-c2nnc3n2N=C(C(C)C)CS3)c1
106%	COc1cc(Br)c(-c2nnc3n2N=C(C(C)C)CS3)cc1OC
204%	CC(C)C1=Nn2c(nnc2-c2ccc(Cl)cc2Cl)SC1
267%	CC(C)(C)C1=Nn2c(nnc2-c2cc(Cl)ccc2Br)SC1
166%	COc1ccc(OC)c(-c2nnc3n2N=C(C(C)C)CS3)c1
